Reference: patent publication US20250382269A1 (CFD Research Corporation, priority 2019, published 2025)

Tests used:
[1] = system: S. aureus cell wall synthesis; experiment: Macromolecular synthesis assay (glucosamine incorporation into cell wall); type: cell-based; settings: dose-response, FIG. 2A-2B
[2] = system: branched chain amino acid synthesis pathway (ILVB); experiment: RNA sequencing / transcriptomic and metabolic mechanism of action studies
[3] = system: B. subtilis / cytotoxicity EC50; experiment: Selectivity index (SI) using B. subtilis MICs
Procedure: (§1) Additionally, the antimicrobial compounds were analyzed for cytotoxicity. […] We utilized the standard MTT assay (Promega CellTiter 96) and GraphPad Prism 7 software to determine EC50 values for each analogue. Briefly, 20,000 HepG2 cells in 200 μl of the ATCC recommended media were seeded in each well of a 96-well plate with a moisture barrier created in the outermost wells. The cells were allowed to attach overnight at 37° C., and then observed under phase contrast microscopy for proper morphological characteristics. If cells appeared healthy and attached, test compounds were added in 7 concentrations from […] (n=3) from freshly prepared DMSO stock plates. […] Once incubations were complete, the spectrophotometric absorbance of the samples was measured at a wavelength of 595 nm. […] For the HepaRG assay, NoSpin HepaRG™ cells (Lonza, cat #NSHPRG) were thawed and plated with 20,000 cells per well. They were allowed to attach for 4 h (optimal DME profile per Lonza's testing) before dosing following the identical protocol as above.

Candida glabrata = experiment: MIC/MFC against Candida glabrata strains; type: cell-based; settings: Nakaseomyces glabratus; #584
HepaRG cells = experiment: Cytotoxicity MTT assay in HepaRG cells; type: cell-based, human; settings: 48 h
Procedure: as §1

[4] = MIC with and without 2-ketobutyrate (synergy); type: cell-based

SMILES: Brc1ccc2[nH]cc(Sc3ccccc3Br)c2c1 [Compound 174I, 5-bromo-3-((2-bromophenyl)thio)-1H-indole]
- cell wall synthesis inhibition (glucosamine incorporation) [1]: substantial cell wall synthesis inhibition
- mechanism of action from transcriptomic and metabolic studies [2]: branched chain amino acid biosynthesis inhibition

SMILES: Fc1ccc2[nH]cc(Sc3ccc(Br)cc3)c2c1 [Compound 174E, 3-((4-bromophenyl)thio)-5-fluoro-1H-indole]
- SI (selectivity index) [3]: 14.2

SMILES: Clc1ccc(Sc2c[nH]c3ccc(Br)cc23)cc1 [Compound 174J, 5-bromo-3-((4-chlorophenyl)thio)-1H-indole]
- SI (selectivity index) [3]: 16.2

SMILES: CCc1ccccc1Sc1c[nH]c2ccc(C(F)(F)F)cc12 [Compound 177G, 3-((2-ethylphenyl)thio)-5-(trifluoromethyl)-1H-indole]
- SI (selectivity index) [3]: 18.9

SMILES: Oc1ccccc1Sc1c[nH]c2ccc(C(F)(F)F)cc12 [Compound 177A, 2-((5-(trifluoromethyl)-1H-indol-3-yl)thio)phenol]
- SI (selectivity index) [3]: 61.8

SMILES: Clc1c(Cl)c(Cl)c(Sc2c[nH]c3ccc(Br)cc23)c(Cl)c1Cl [Compound 174AD, 5-bromo-3-((perchlorophenyl)thio)-1H-indole]
- MIC (Candida glabrata): > 50 µg/mL

SMILES: Oc1ccc(Sc2c[nH]c3ccc(C(F)(F)F)cc23)cc1 [Compound 177B, 4-((5-(trifluoromethyl)-1H-indol-3-yl)thio)phenol]
- SI (selectivity index) [3]: 17.8

SMILES: Oc1ccc(Sc2c[nH]c3ccccc23)cc1 [Compound 156I, 4-((1H-indol-3-yl)thio)phenol]
- Cytotoxicity HepaRG EC50 (HepaRG cells): >20 µg/mL

SMILES: CN[C@H](CC(C)C)C(=O)N[C@H]1C(=O)N[C@@H](CC(N)=O)C(=O)N[C@H]2C(=O)N[C@H]3C(=O)N[C@H](C(=O)N[C@H](C(=O)O)c4cc(O)cc(O)c4-c4cc3ccc4O)[C@H](O)c3ccc(c(Cl)c3)Oc3cc2cc(c3O[C@@H]2O[C@H](CO)[C@@H](O)[C@H](O)[C@H]2O[C@H]2C[C@](C)(N)[C@H](O)[C@H](C)O2)Oc2ccc(cc2Cl)[C@H]1O [vancomycin, reference compound]
- cell wall synthesis inhibition (glucosamine incorporation) [1]: increasingly inhibits glucosamine from incorporating into a cell wall

SMILES: Nc1ccccc1Sc1c[nH]c2ccc(Br)cc12 [Compound 174M, 2-((5-bromo-1H-indol-3-yl)thio)aniline]
- Cytotoxicity HepaRG EC50 (HepaRG cells): 85 µg/mL
- MIC with 200 μg/mL 2-ketobutyrate ([4]; with 200 μg/mL 2-ketobutyrate): 0.781
- MIC with 800 μg/mL 2-ketobutyrate ([4]; with 800 μg/mL 2-ketobutyrate): less than 0.39
- mechanism of action from transcriptomic and metabolic studies [2]: branched chain amino acid biosynthesis inhibition

SMILES: Brc1ccc(Sc2c[nH]c3ccccc23)cc1 [Compound 156K, 3-((4-bromophenyl)thio)-1H-indole]
- Cytotoxicity HepaRG EC50 (HepaRG cells): 32 µg/mL
